Assay results as given in BindingDB's records for doi:10.1021/jm0100537 (Glaxosmithkline, 2001).
One block for each molecule: values may come before it.

Key:
Experiment in all cases: Caspase Inhibition Assay
Caspase-3 = target: T1, Caspase-3 (Homo sapiens, UniProt P42574)
T1 sequence (P42574 whole entry): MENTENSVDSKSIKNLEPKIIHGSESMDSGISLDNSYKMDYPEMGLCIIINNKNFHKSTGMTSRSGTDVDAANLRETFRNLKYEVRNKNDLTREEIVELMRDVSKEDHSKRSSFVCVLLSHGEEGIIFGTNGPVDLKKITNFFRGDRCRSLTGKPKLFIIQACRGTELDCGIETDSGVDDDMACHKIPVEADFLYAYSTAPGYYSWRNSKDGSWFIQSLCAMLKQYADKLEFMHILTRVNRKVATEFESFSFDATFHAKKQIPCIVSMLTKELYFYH

Caspase-7 = target: T2, Caspase-7 (Homo sapiens, UniProt P55210)
T2 sequence (P55210 whole entry): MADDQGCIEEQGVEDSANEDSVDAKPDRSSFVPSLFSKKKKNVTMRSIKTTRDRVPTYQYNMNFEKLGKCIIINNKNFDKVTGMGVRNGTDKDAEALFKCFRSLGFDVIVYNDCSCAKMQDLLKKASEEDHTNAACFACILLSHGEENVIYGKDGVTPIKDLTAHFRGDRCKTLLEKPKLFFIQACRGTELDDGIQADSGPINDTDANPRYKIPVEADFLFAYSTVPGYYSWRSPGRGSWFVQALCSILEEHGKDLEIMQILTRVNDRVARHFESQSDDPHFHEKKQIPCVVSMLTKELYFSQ

Caspase-9 = target: T3, Caspase-9 (Homo sapiens, UniProt P55211)
T3 sequence (P55211 whole entry): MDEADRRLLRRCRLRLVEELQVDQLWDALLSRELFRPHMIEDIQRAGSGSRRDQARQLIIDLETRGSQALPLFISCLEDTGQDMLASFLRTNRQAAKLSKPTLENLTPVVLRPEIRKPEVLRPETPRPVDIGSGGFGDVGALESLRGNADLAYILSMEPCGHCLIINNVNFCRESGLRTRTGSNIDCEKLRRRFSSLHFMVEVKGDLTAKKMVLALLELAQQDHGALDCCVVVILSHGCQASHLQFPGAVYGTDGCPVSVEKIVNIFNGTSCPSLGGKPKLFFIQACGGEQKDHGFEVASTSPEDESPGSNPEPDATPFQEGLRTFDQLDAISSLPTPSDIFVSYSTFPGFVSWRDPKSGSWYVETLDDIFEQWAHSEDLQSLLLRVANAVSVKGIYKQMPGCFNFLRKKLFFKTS

Caspase-4 = target: T4, Caspase-4 (Homo sapiens, UniProt P49662)
T4 sequence (P49662 whole entry): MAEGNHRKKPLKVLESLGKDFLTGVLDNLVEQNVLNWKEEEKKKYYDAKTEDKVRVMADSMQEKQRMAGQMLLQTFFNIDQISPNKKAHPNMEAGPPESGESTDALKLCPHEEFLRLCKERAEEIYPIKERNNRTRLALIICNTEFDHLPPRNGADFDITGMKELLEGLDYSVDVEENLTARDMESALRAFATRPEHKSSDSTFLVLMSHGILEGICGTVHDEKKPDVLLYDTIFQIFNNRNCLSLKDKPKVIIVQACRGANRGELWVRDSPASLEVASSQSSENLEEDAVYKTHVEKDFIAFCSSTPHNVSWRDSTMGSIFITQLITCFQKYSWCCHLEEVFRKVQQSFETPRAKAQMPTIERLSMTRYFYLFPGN

Caspase-1 = target: T5, Caspase-1 (Homo sapiens, UniProt P29466)
T5 sequence (P29466 whole entry): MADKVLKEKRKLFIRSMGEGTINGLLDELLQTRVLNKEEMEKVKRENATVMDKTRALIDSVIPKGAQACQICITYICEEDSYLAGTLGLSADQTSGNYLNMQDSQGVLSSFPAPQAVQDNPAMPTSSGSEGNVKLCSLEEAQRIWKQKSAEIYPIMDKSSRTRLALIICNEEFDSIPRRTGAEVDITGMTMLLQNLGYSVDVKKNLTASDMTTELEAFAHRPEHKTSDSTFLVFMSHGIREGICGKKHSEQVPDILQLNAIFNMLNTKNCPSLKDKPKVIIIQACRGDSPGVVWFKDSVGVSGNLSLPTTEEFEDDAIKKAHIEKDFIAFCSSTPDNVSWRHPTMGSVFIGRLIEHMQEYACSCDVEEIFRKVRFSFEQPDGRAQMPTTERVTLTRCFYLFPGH

Caspase-8 = Caspase-8 (Homo sapiens, UniProt Q14790)
Sequence of Caspase-8 (Q14790 217-374 limits assumed): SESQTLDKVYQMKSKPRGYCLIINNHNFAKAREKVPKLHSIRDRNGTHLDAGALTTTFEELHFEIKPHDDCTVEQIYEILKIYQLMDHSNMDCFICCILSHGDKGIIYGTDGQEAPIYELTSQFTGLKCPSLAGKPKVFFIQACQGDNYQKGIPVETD
Sequence of Caspase-8 (Q14790 385-479 limits assumed): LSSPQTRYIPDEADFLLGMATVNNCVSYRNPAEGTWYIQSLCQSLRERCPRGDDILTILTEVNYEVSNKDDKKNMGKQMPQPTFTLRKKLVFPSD

Caspase-2 = target: T6, Caspase-2 (Homo sapiens, UniProt P42575)
T6 sequence (P42575 whole entry): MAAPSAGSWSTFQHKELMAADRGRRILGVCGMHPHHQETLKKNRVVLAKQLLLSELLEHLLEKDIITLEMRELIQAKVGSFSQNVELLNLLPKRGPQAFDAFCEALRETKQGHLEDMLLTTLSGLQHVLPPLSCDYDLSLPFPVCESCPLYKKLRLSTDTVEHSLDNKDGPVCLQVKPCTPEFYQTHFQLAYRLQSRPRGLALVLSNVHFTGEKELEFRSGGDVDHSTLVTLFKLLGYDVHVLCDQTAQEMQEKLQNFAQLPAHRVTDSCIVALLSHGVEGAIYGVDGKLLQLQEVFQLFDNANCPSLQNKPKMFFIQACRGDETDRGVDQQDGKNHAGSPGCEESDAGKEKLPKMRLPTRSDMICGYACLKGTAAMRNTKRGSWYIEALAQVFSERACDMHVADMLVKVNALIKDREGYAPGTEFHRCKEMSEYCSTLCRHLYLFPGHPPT

Caspase-6 = target: T7, Caspase-6 (Homo sapiens, UniProt P55212)
T7 sequence (P55212 whole entry): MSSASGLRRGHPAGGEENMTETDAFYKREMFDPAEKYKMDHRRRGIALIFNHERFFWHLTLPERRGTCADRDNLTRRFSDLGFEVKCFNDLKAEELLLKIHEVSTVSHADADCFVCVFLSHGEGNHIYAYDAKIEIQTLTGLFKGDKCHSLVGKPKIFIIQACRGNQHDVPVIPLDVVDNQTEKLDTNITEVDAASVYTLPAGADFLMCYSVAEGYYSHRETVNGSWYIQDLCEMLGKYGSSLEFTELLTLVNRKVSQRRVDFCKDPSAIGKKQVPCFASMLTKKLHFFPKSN

- IC50 (Caspase-3): 5.5 µM
- Ki (Caspase-3): 12 µM
- Ki (Caspase-7): 10 µM
- Ki (Caspase-9): > 50 µM
- Ki (Caspase-4): > 50 µM
- Ki (Caspase-1): > 50 µM
- Ki (Caspase-8): > 50 µM
- Ki (Caspase-2): 11 µM
- Ki (Caspase-6): 57 µM
SMILES: O=C1Nc2ccc(S(=O)(=O)N3CCC[C@@H]3CNc3ccccc3)cc2C1=O [5-{[(2R)-2-[(phenylamino)methyl]pyrrolidine-1-]sulfonyl}-2,3-dihydro-1H-indole-2,3-dione]

- IC50 (Caspase-3): 0.03 µM
SMILES: CN1C(=O)C(=O)c2cc(S(=O)(=O)N3CCC[C@H]3COc3ccccc3)ccc21 [(S)-1-Methyl-5-{1-[2-(phenoxymethyl)pyrrolidinyl]sulfonyl}isatin]

- IC50 (Caspase-3; pH 7.5, 30 °C): 3 µM
SMILES: O=C1Nc2ccc([N+](=O)[O-])cc2C1=O [5-nitro-2,3-dihydro-1H-indole-2,3-dione]

- IC50 (Caspase-3): 0.14 µM
SMILES: O=C1Nc2ccc(S(=O)(=O)N3CCC[C@H]3C(=O)Nc3ccccc3)cc2C1=O [(2S)-1-[(2,3-dioxo-2,3-dihydro-1H-indole-5-)sulfonyl]-N-phenylpyrrolidine-2-carboxamide]
